Consider one molecule from paper PMC10343464, “Identification and characterization of a novel aminoglycoside O-nucleotidyltransferase ANT(6)-If from Paenibacillus thiaminolyticus PATH554” (Frontiers in Microbiology, 2023).

This assay relates to T1, ANT(6)-If.
T1 construct: full-length ORF (855 bp, TTG start codon); 284 residues; His6 tag removed with thrombin; likely homodimer by clear-native PAGE
The experiment in a line: coupled UDP-glucose pyrophosphorylase / phosphoglucomutase / G6PDH assay, NADPH at […] nm. To be noted: 1 mM ATP, 10 mM MgCl2, 50 mM HEPES pH 7.5; temperature not given. In kind it is biochemical, Paenibacillus thiaminolyticus.

For `CN[C@@H]1[C@H](O[C@H]2[C@H](O[C@H]3[C@H](O)[C@@H](O)[C@H](N=C(N)N)[C@@H](O)[C@@H]3N=C(N)N)O[C@@H](C)[C@]2(O)C=O)O[C@@H](CO)[C@H](O)[C@H]1O` [streptomycin], the Km (usually the substrate concentration at which the rate is half of its maximum) stood at 12.4 µM.
